How the values were obtained:
[1] = system: NR/hypo-induced vacuoles in PC/RS cortical neurons (MK-801); test: Anti-psychotic drugs and sigma blockers: protection against NR/hypo-induced vacuoles; format: in vivo, rats; conditions: Rattus norvegicus, Cortical neurone, ip, read-out: ED50 in protecting against NR/hypo-induced vacuoles
Description: Several of the antipsychotic agents tested (haloperidol, thioridazine and loxapine) are known to interact with both dopamine receptors and sigma receptors.
Control animals received saline or DMSO, but no anti-psychotic drugs. Test animals were injected ip with an antipsychotic drug, listed above and in Table 2. Vacuoles were counted and data were processed as described in Example 1.

5HT-2C = conditions: cited from earlier work
5HT-3 = conditions: cited from earlier work
5HT-6 = conditions: cited from earlier work
5HT-7 = conditions: cited from earlier work
[2] = system: NMDA antagonist toxic side effects; test: Safener drugs against NMDA antagonist toxic side effects (earlier findings); format: in vivo; conditions: Applicants' discovery, no data given

In the case of `CN1CCN(C2=Nc3cc(Cl)ccc3Nc3ccccc32)CC1` [Clozapine], the ED50 [1] is listed as 3.2 mg/kg, the “affinity for 5HT-2C” value (5HT-2C) is listed as “high affinity” and the “affinity for 5HT-3” value (5HT-3) is listed as “high affinity”. The “affinity for 5HT-6” value (5HT-6) was “high affinity” and the “affinity for 5HT-7” value (5HT-7) was “high affinity”.
In the case of `C=CCC1(C(C)CCC)C(=O)NC(=O)NC1=O` (stereo not drawn) [secobarbitol], the “prevention of NMDA antagonist toxic side effects” value [2] was “prevent NMDA antagonists from causing toxic side effects”.
